Experimental data taken from patent publication US8957060B2, “Tumescent antibiotic solution” (priority 2004, dated 2015).
Values after ≈ are worked out from the molar mass of the structure shown. Where two headings read alike, the source gives them in different places.

Tests used:
[1] = test system: Staphyloccus aureus (MRSA) ATCC 33592; experiment: Minimum Bactericidal Concentration (MBC); type: cell-based; conditions: Staphylococcus aureus, read-out: MBC end point
Description: Determinations of MBC followed the method described in “Report on the Working Party on Antibiotic Sensitivity Testing of the British Society of Antimicrobial Chemotherapy: A Guide to Sensitivity Testing.”

[2] = test system: Staphyloccus aureus (MRSA) ATCC 33592; experiment: Minimum Inhibitory Concentration (MIC), dilution method; conditions: Staphylococcus aureus, 48 h, read-out: MIC end point
Experimental: Following inoculation, survival of test microorganisms was determined. This method of determining MIC was based on the method described in the NCCLS document M7: Methods for Dilution Antimicrobial Susceptibility Tests for Bacteria that Grow Aerobically; Approved Standard—Seventh Edition.

[3] = test system: platelet aggregation induced by ADP, epinephrine and collagen; conditions: cited from earlier work
[4] = cited from earlier work
[5] = cited from earlier work; remark: listed apart in the source
[6] = Pharmacokinetics of TAD vs IVAD (cefazolin, metronidazole): AUC and Cmax in TISF and serum
Experimental: A clinical pharmacologic investigation was conducted to compare the pharmacokinetic advantages of two modes of systemic antibiotic delivery, Tumescent antibiotic delivery (TAD), which involves the delivery of a relatively large volume of an antibiotic-containing solution to the subcutaneous compartment, and intravenous antibiotic delivery (IVAD), which results in direct delivery of antibiotics to the blood stream, for prophylaxis of SSI. […] Methods
With Institutional Review Board (IRB) approval, the absorption pharmacokinetics of tumescent antibiotic delivery (TAD) and intravenous antibiotic delivery (IVAD) were tested in human subjects and the antibiotic delivery modes were evaluated with respect to the area under the curve (AUC) of antibiotic concentration as a function of time and peak antibiotic concentration (Cmax) in serum and TISF. 4 female subjects participated in at least one study, one subject volunteered for 2 separate studies. 5 studies were conducted: 3 involved TAD to the abdomen, 1 involved TAD to the hips and outer thighs and 1 involved TAD to the breasts. […] Each of the 5 studies consisted of 2 to 3 pharmacokinetic procedures, for a total of 14 procedures. Any procedures conducted on an individual subject were separated by at least one week. In 13 procedures only IVAD or TAD, was used. In one procedure both IVAD and TAD were used concurrently, with IVAD started and finished within five minutes after completing TAD.
TAD was conducted as described herein. Following TAD, sequential 10 ml samples of tumescent adipose tissue were obtained using a hand-held syringe-liposuction technique. Sampling began immediately after completing the TAD infiltration (T0), and continuing until the patients reported significant discomfort. Liposuction aspirate samples were obtained at 0, 1, 2, 3, 4, 6, and 8 hours in all procedures; in 4 TAD procedures, sampling continued until 10 hours. Sequential serum samples for measurement of antibiotic concentration in serum after TAD ([Serum]TAD) were obtained simultaneously.
For IVAD, the antibiotic was delivered into an antecubital vein. […]

Cc1nnc(SCC2=C(C(=O)O)N3C(=O)[C@@H](NC(=O)Cn4cnnn4)[C@H]3SC2)s1 [Cefazolin]
MBC ([1]; 24 h, Day 1): 250 µg/mL (≈ 550 µM)
MBC ([1]; 48 h, Day 2): 250 µg/mL (≈ 550 µM)
MIC [2]: 250 µg/mL (≈ 550 µM)

CCN(CC)CC(=O)Nc1c(C)cccc1C [Lidocaine]
concentration that consistently inhibits in-vitro platelet aggregation ([3]; aggregation induced by ADP, epinephrine and collagen): ≥ 0.5 mg/mL
safe systemic concentration with no effect on platelet aggregation [3]: ≤ 6 micrograms/ml
duration of local anesthesia ([4]; 1% or 2% commercial concentrations of lidocaine with epinephrine): 2 to 3 h
persistence of profound surgical local anesthesia ([4]; tumescent local anesthesia (TLA)): 6 to 8 h
dosage limitation approved by the FDA ([5]; infiltration local anesthesia, commercial lidocaine (1%) with epinephrine (1:100,000)): 7 mg/kg
maximum safe mg/kg dosage (estimated) ([5]; tumescent lidocaine, TLA without liposuction, adults): 30 mg/kg

Cc1ncc([N+](=O)[O-])n1CCO [Metronidazole]
AUC[Serum]IVAD ([6]; Study 5, 600 mg metronidazole IVAD): 127
period in which serum concentration of metronidazole exceeds 4 μg/ml ([6]; female, human, in vivo): 0 to 12 h

CO[C@@]1(NC(=O)Cc2cccs2)C(=O)N2C(C(=O)O)=C(COC(N)=O)CS[C@@H]21 [cefoxitin]
times greater antibiotic exposure in ISF by TAD than by IVAD (150×AUC[ISF]IVAD<AUC[TISF]TAD) ([6]; human, in vivo): 150
